Measurements reported in US11286299B2, “Peptides selective for Bcl-2 family proteins” (Massachusetts Institute of Technology, priority 2018, dated 2022).
Read-outs that look alike come from different tables or passages of the source.

Tests used:
Bfl-1 [1] = target: T1, Bfl-1 (Homo sapiens, UniProt Q16548); conditions: cited from earlier work
T1 sequence (Q16548 1-151): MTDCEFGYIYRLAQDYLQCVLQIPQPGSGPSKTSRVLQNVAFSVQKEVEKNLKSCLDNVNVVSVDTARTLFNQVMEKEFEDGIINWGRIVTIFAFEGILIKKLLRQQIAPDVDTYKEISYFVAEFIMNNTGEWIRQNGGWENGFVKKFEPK

Bcl-xL [2] = target: T2, Bcl-xL (Homo sapiens, UniProt Q07817); conditions: cited from earlier work; for Ki: Table X3, previously reported selective peptides, read-out: reported affinity, Bcl-xL
Mcl-1 [3] = target: T3, Mcl-1 (Homo sapiens, UniProt Q07820); conditions: cited from earlier work; for Ki: Table X3, previously reported selective peptides, read-out: reported affinity, Mcl-1
Mcl-1 [4] = target: T3, Mcl-1; experiment: Competition fluorescence polarization (anisotropy) binding assay; parameters: Mcl-1 residues 172-327; made in house; host or cells: E. coli
Experimental: (§1) Fluorescence polarization competition binding assay Competition fluorescence polarization experiments were performed as described by Jenson et al. […]. Experiments were performed in triplicate, using the same protein and peptide preparations, and data were fit as described by Foight et al. (20) to a complete competitive binding model (47).

Bcl-xL [5] = target: T2, Bcl-xL; experiment: as above; parameters: human Bcl-xL residues 1-209; made in house; host or cells: E. coli
Experimental: as §1

Bfl-1 [6] = target: T1, Bfl-1; experiment: as above; parameters: Bfl-1 residues 1-151; made in house; host or cells: E. coli
Experimental: as §1

[7] = test system: B-ALL cell lines with engineered dependencies on human anti-apoptotic genes (Bfl-1, Mcl-1, Bcl-xL, Bcl-2); experiment: Cellular BH3 profiling assay (mitochondrial depolarization, JC-1, permeabilized cells); assay type: cell-based, murine; conditions: for pro-apoptotic response in dependent cell lines: permeabilized cells, Bfl-1 vs Mcl-1 or Bcl-xL dependent cell lines
Experimental: Cell Culture We used murine p185+ Arf^−/^− B-ALL suspension cell lines with engineered dependencies on the human anti-apoptotic genes (Bfl-1, Mcl-1, Bcl-xL), along with an apoptosis-resistant (Bax^−/−/Bak^−/−) control(51). Cells were grown in Roswell Park Memorial Institute (RPMI) 1640 medium supplemented with 10% (v/v) fetal bovine serum, 2 mM L-glutamine, 100 U/mL penicillin, […] streptomycin, 0.1 mM minimal essential medium nonessential amino acids, 25 mM HEPES and […] β-mercaptoethanol. Cell line authentication was performed by short tandem repeat (STR) analysis. Cell were monitored for mycoplasma contamination using the MycoAlert® Mycoplasma Detection Kit (Lonza, Rockland, Mass., USA).
(§2) Cellular BH3 profiling assay BH3 profiling was adapted from the protocol of Ryan and Letai (32). Peptides were diluted at the desired concentrations in MEB buffer (150 mM Mannitol, 10 mM HEPES-KOH pH 7.5, 50 mM KCl, 0.02 mM EGTA, 0.02 mM EDTA, 0.1% BSA and 5 mM succinate) containing […] oligomycin, […] digitonin, […] and 10 mM 2-mercaptoethanol in 384-well plates. […] Fluorescence emission was measured every 5 min for 3 hr at […] with 525 nm excitation on a Tecan Spark 10M. To produce percent depolarization, the area under the resulting curve was calculated and normalized to the assay controls. […]
as §2, with “Peptides” for “Cellular BH3 profiling assay BH3 profiling was adapted from the protocol of Ryan and Letai (32). Peptides”, “titrated by serial dilution” for “diluted at the desired concentrations”, “HEPES-KOH,” for “HEPES-KOH”, “Succinate)” for “succinate)”, “h” for “hr”
As depicted in FIGS. 7-11, permeabilized cells were contacted with increasing doses of BH3 peptides, ad mitochondria outer membrane permeabilization (MOMP) was monitored using a voltage-sensitive dye (JC-1). […]

Bfl-1 [8] = target: T1, Bfl-1; experiment: Yeast cell-surface display binding (FACS titration); parameters: Bfl-1 residues 1-151; made in house; host or cells: E. coli; conditions: for binding to Bfl-1 in yeast display: SORTCERY designs; for reported affinity, Bfl-1: Table X3, this study, Bfl-1 specific peptides, cell-surface measurement, highest concentration tested 1000 nM
Excerpt: Protein constructs Anti-apoptotic protein constructs used in this work correspond to human Bcl-xL residues 1-209, Mcl-1 residues 172-327 and Bfl-1 residues 1-151, expressed in E. coli and purified as described by Dutta et al. (45).
Cells were filtered and washed 2× in chilled BSS before resuspending the labeled cells in BSS and using a BD FACSAria flow cytometer or a BD FACSCanto and FACSDiva software for cell sorting or analysis.
Crystals were flash frozen in liquid nitrogen.

[9] = fluoresceinated Bim BH3 competitor, as reported by Dutta et al. 2013
[10] = Table X2, 50 nM protein, 25 nM fluoresceinated Bim BH3, SD of three replicates, read-out: Ki, Mcl-1
[11] = Table X3, this study, same values as Table X2, read-out: reported affinity, Mcl-1
[12] = Table X2, 50 nM protein, 25 nM fluoresceinated Bim BH3, SD of three replicates, read-out: Ki, Bcl-xL
[13] = Table X2, 50 nM protein, 25 nM fluoresceinated Bim BH3, SD of three replicates, read-out: Ki, Bfl-1
[14] = Table X3, this study, same values as Table X2, read-out: reported affinity, Bfl-1
[15] = Table X3, this study, same values as Table X2, read-out: reported affinity, Bcl-xL

T2 sequence (Q07817 1-209): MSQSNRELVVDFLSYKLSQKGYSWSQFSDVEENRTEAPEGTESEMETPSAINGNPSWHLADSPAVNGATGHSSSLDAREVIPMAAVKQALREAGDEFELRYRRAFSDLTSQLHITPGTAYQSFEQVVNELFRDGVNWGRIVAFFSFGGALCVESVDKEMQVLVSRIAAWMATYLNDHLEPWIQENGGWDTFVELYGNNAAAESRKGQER
T3 sequence (Q07820 172-327): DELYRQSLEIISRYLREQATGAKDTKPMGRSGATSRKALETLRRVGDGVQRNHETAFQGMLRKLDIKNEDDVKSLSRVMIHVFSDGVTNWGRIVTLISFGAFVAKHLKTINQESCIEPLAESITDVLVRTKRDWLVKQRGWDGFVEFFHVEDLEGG

(fl)IWIAQELRRIGDEFNAYY [Fluoresceinated Bim]
Kd (Bfl-1 [1]; [9]): 0.004 ± 0.001 µM
Kd (Bcl-xL [2]; [9]): 0.006 ± 0.001 µM
Kd (Mcl-1 [3]; fluoresceinated Bim BH3 competitor, as reported by Dutta et al. 2013, read-out: Kd, Mcl-1): 0.0008 ± 0.0004 µM

Ac-QPLIWFGAQLRRGADEFAAQRER-NH2 [srt.X7]
Ki (Mcl-1 [4]; [10]): > 4 µM
Ki (Mcl-1 [4]; [11]): > 4 µM
Ki (Bcl-xL [5]; [12]): 0.0037 ± 0.0003 µM
Ki (Bfl-1 [6]; [13]): > 4 µM
Ki (Bfl-1 [6]; [14]): > 4 µM

Ac-QRIIWIAAELRRAADELDKQIER-NH2 [srt.XF02]
Ki (Mcl-1 [4]; [10]): > 4 µM

Ac-QRIIWIAAELRRAADQLDAQIER-NH2 [srt.XF03]
Ki (Mcl-1 [4]; [10]): > 4 µM

Ac-QRVVHIAAGLRRTGDQLEAYGER-NH2 [srt.F4]
pro-apoptotic response in dependent cell lines [7]: selectively induced a pro-apoptotic response in Bfl-1 dependent cell lines, but not in Mcl-1 or Bcl-xL dependent cell lines
binding to Bfl-1 in yeast display (Bfl-1 [8]): bound Bfl-1 with high affinity in yeast display
reported affinity, Bfl-1 (Bfl-1 [8]): 14 ± 2 nM
binding to Bfl-1 in the FP competition assay (Bfl-1 [6]): undetectably

Ac-QTLIWYGASLRRYADEFAKQRER-NH2 [srt.X1]
Ki (Mcl-1 [4]; [10]): > 4 µM
Ki (Mcl-1 [4]; [11]): > 4 µM
Ki (Bcl-xL [5]; [12]): 0.00132 ± 0.00018 µM
Ki (Bfl-1 [6]; [13]): > 4 µM
Ki (Bfl-1 [6]; [14]): > 4 µM

Ac-QWLRDVVAELARIADEFHAQYER-NH2 [srt.MX05]
Ki (Bfl-1 [6]; [13]): > 4 µM

Ac-QWLRWVIAELIRIADEFHAQYER-NH2 [srt.MX01]
Ki (Bfl-1 [6]; [13]): > 4 µM

Ac-RRVDEIAQILRRIGDNVTTYIER-NH2 [srt.MF06]
Ki (Bcl-xL [5]; [12]): > 4 µM

Ac-RRVVQIAAGLRRAGDQLEKYGER-NH2 [srt.F10]
inhibition of Bfl-1 in the cellular assay relative to peptide FS1 [7]: at least as potently as a previously described peptide
pro-apoptotic response in dependent cell lines [7]: selectively induced a pro-apoptotic response in Bfl-1 dependent cell lines, but not in Mcl-1 or Bcl-xL dependent cell lines
binding to Bfl-1 in yeast display (Bfl-1 [8]): bound Bfl-1 with high affinity in yeast display
reported affinity, Bfl-1 (Bfl-1 [8]): 3.2 ± 0.4 nM
binding to Bfl-1 in the FP competition assay (Bfl-1 [6]): weakly

Ac-RSELEVVQELVRIGDIVVAYFER-NH2 [srt.M1]
Ki (Bcl-xL [5]; [12]): > 4 µM
Ki (Bcl-xL [5]; [15]): > 4 µM
Ki (Bfl-1 [6]; [13]): > 4 µM
Ki (Bfl-1 [6]; [14]): > 4 µM

Ac-RSQYEVIQELIRIGDIVLAYFER-NH2 [srt.M9]
Ki (Mcl-1 [4]; [10]): 0.0006 ± 0.0003 µM
Ki (Bcl-xL [5]; [12]): > 4 µM
Ki (Bcl-xL [5]; [15]): > 4 µM
Ki (Bfl-1 [6]; [13]): > 4 µM
Ki (Bfl-1 [6]; [14]): > 4 µM

QWVREIAAGLRLAADNVNAQLER [FS1]
Ki (Bfl-1 [1]; previously described peptide (ref 25), read-out: Ki for Bfl-1): 0.015 µM
Ki (Bcl-xL [2]): 2.4 ± 0.4 µM
Ki (Mcl-1 [3]): > 5 µM

QWVREIAAGLRRAADDVNAQVER [FS2]
Ki (Bfl-1 [1]; Table X3, previously reported selective peptides, read-out: reported affinity, Bfl-1): 0.021 ± 0.006 µM
Ki (Bcl-xL [2]): > 5 µM
Ki (Mcl-1 [3]): 3.2 ± 0.3 µM
Kd (Mcl-1 [3]; read-out: Kd for Mcl-1): > 3 µM
